The record followed here is paper PMC6539678 (International Journal of Molecular Sciences, 2019).

Each structure is given as a SMILES string. Starred links: 1 amine or outer side, 2 acyl side, 3 side chain; linkers in the order of their positions; H or OH if unused. Non-standard residues stand in square brackets, D forms with d. Residues, ends and D or L forms follow the SMILES beside them. Groups on a side chain read outwards from the residue. *: point of attachment. PEG24 = NCCOCCOCCOCCOCCOCCOCCOCCOCCOCCOCCOCCOCCOCCOCCOCCOCCOCCOCCOCCOCCOCCOCCOCCOCCC(=O)O; X1 = O=C([C@H](Cc1ccc(-n2nnc3c2-c2ccccc2N([*:3])Cc2ccccc2-3)cc1)N[*:1])[*:2]; Pteroyl = Nc1nc2ncc(CNc3ccc(C(=O)*)cc3)nc2c(=O)[nH]1; Biotin = O=C1N[C@H]2[C@H](CS[C@H]2CCCCC(=O)*)N1; γGlu = O=C(O)[C@H](CCC(=O)[*:2])N[*:1]; βAla = NCCC(=O)O

The target of the test is T1, folate receptor alpha (FRα) (Homo sapiens, UniProt P15328).
T1 construct: made in house
The test is described as follows: Biolayer interferometry (BLI) binding of folate and folate-peptide conjugates to FRα. As to conditions: for kon: pH 7.4, read-out: ka (association rate constant); for koff: pH 7.4, read-out: kd (dissociation rate constant). The procedure:
All steps performed for purification and refolding of FRα were carried out according to our previous report. However, some different reagents were used. […] The inclusion bodies were solubilized and purified with 8 M urea instead of 6 M guanidine HCl.
The measurement procedure has been reported previously. […] To eliminate errors from non-specific binding of the analyte (FRα) on the SA biosensor chips, reference data with the same concentrations of analyte were also measured.
The obtained binding data were analyzed using a 1:1 local analysis mode applied with association and dissociation step corrections by the BLItz Pro1.2 software (ForteBio). The reference measurements were subtracted during data analysis to determine ka, kd and KD.
On the technique in general: BLI is a label-free optical method that tracks binding on a fibre tip over time.

[1] abbreviates: BLI (BLItz), 25 °C, 10 mM PBS pH 7.4, 0.5% BSA, 0.01% Tween 20, ligand immobilized via biotin on streptavidin sensor, 1:1 local analysis, 'Folate' = folate-PEG8-biotin control.

T1 sequence (P15328 25-257): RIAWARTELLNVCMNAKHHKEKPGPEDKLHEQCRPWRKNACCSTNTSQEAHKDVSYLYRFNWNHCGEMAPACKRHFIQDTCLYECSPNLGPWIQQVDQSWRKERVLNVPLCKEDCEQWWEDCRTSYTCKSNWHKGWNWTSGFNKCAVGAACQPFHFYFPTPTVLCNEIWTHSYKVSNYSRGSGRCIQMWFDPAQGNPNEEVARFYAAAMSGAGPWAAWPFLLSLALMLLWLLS

Regarding `C[C@H](NC(=O)[C@H](CCCCN)NC(=O)[C@H](Cc1ccc(-n2nnc3c2-c2ccccc2N(C(=O)CCNC(=O)CC[C@H](NC(=O)c2ccc(NCc4cnc5nc(N)[nH]c(=O)c5n4)cc2)C(=O)O)Cc2ccccc2-3)cc1)NC(=O)[C@H](CCC(=O)O)NC(=O)[C@H](CO)NC(=O)[C@H](CC(=O)O)NC(=O)CCOCCOCCOCCOCCOCCOCCOCCOCCOCCOCCOCCOCCOCCOCCOCCOCCOCCOCCOCCOCCOCCOCCOCCOCCNC(=O)CCCC[C@@H]1SC[C@@H]2NC(=O)N[C@@H]21)C(=O)N[C@@H](Cc1ccc(O)cc1)C(=O)O` [DSEZKAY] ({Biotin-PEG24}-DSE[X1]([βAla-γGlu-Pteroyl])KAY-OH; C-terminus assumed), the kon amounted to 1.1e+06 M⁻¹ s⁻¹ and the koff turned out to be 0.000265 s⁻¹. Under “DSEZKAY relative to SEZKA”, the “fold faster association constant” value is on record as 12 fold, the “fold faster dissociation constant” value amounted to 3 fold and the “fold lower KD” value was 4 fold.

For `Nc1nc(=O)c2nc(CNc3ccc(C(=O)N[C@@H](CCC(=O)O)C(=O)O)cc3)cnc2[nH]1` [Folate, reference compound], under setting [1], the “ka (association rate constant)” value is 6.74e+06 M⁻¹ s⁻¹ and the “kd (dissociation rate constant)” value worked out at 0.00769 s⁻¹.

Consider `CC[C@H](C)[C@H](NC(=O)[C@H](Cc1ccc(-n2nnc3c2-c2ccccc2N(C(=O)CCNC(=O)CC[C@H](NC(=O)c2ccc(NCc4cnc5nc(N)[nH]c(=O)c5n4)cc2)C(=O)O)Cc2ccccc2-3)cc1)NC(=O)[C@H](Cc1ccccc1)NC(=O)CNC(=O)CCOCCOCCOCCOCCOCCOCCOCCOCCOCCOCCOCCOCCOCCOCCOCCOCCOCCOCCOCCOCCOCCOCCOCCOCCNC(=O)CCCC[C@@H]1SC[C@@H]2NC(=O)N[C@@H]21)C(=O)N[C@@H](CCC(N)=O)C(=O)O` [GFZIQ] ({Biotin-PEG24}-GF[X1]([βAla-γGlu-Pteroyl])IQ-OH; C-terminus assumed), for which the kon was 411000 M⁻¹ s⁻¹ and the koff came to 7.53e-05 s⁻¹.

Turning to `C[C@H](NC(=O)[C@H](CCCCN)NC(=O)[C@H](Cc1ccc(-n2nnc3c2-c2ccccc2N(C(=O)CCNC(=O)CC[C@H](NC(=O)c2ccc(NCc4cnc5nc(N)[nH]c(=O)c5n4)cc2)C(=O)O)Cc2ccccc2-3)cc1)NC(=O)[C@H](CCC(=O)O)NC(=O)[C@H](CO)NC(=O)CCOCCOCCOCCOCCOCCOCCOCCOCCOCCOCCOCCOCCOCCOCCOCCOCCOCCOCCOCCOCCOCCOCCOCCOCCNC(=O)CCCC[C@@H]1SC[C@@H]2NC(=O)N[C@@H]21)C(=O)O` [SEZKA] ({Biotin-PEG24}-SE[X1]([βAla-γGlu-Pteroyl])KA-OH; C-terminus assumed), the kon is 89100 M⁻¹ s⁻¹ and the koff worked out at 8.01e-05 s⁻¹.
